ChEMBL document CHEMBL5252555, “Antimicrobial Polyketides from the Marine-Derived Fungus Spiromastix sp. SCSIO F190” (J Nat Prod, 2023)
Values after ≈ are worked out from the molar mass of the structure shown. Active and inactive are the calls of the source. The calls are words filed in the database; no cut-off is given here.

Tests used:
[1] = system: Staphylococcus aureus; experiment: Antibacterial activity against Staphylococcus aureus 1862 assessed as inhibition of bacterial growth incubated for 18 hrs by broth microdilution method; format: functional
[2] = system: Staphylococcus aureus; experiment: Antibacterial activity against Staphylococcus aureus ATCC 29213 assessed as inhibition of bacterial growth incubated for 18 hrs by broth microdilution method; format: functional
[3] = system: Enterococcus faecium; experiment: Antibacterial activity against Enterococcus faecium 36711 assessed as inhibition of bacterial growth incubated for 18 hrs by broth microdilution method; format: functional
[4] = system: Enterococcus gallinarum; experiment: Antibacterial activity against Enterococcus gallinarum 5F52C assessed as inhibition of bacterial growth incubated for 18 hrs by broth microdilution method; format: functional
[5] = system: Staphylococcus aureus; experiment: Antibacterial activity against Staphylococcus aureus 669 assessed as inhibition of bacterial growth incubated for 18 hrs by broth microdilution method; format: functional
[6] = system: Staphylococcus aureus; experiment: Antibacterial activity against Staphylococcus aureus 16339 assessed as inhibition of bacterial growth incubated for 18 hrs by broth microdilution method; format: functional
[7] = system: Enterococcus faecium; experiment: Antibacterial activity against Enterococcus faecium 35682 assessed as inhibition of bacterial growth incubated for 18 hrs by broth microdilution method; format: functional
[8] = system: Micrococcus luteus; experiment: Antibacterial activity against Micrococcus luteus ML01 assessed as inhibition of bacterial growth incubated for 18 hrs by broth microdilution method; format: functional
[9] = system: Enterococcus faecium; experiment: Antibacterial activity against Enterococcus faecium 36235 assessed as inhibition of bacterial growth incubated for 18 hrs by broth microdilution method; format: functional
[10] = system: Staphylococcus aureus; experiment: Antibacterial activity against methicillin-resistant Staphylococcus aureus assessed as inhibition of bacterial growth incubated for 18 hrs by broth microdilution method; format: functional
[11] = system: Bacillus subtilis; experiment: Antibacterial activity against Bacillus subtilis BS01 assessed as inhibition of bacterial growth incubated for 18 hrs by broth microdilution method; format: functional
[12] = system: Staphylococcus aureus; experiment: Antibacterial activity against Staphylococcus aureus 718306 assessed as inhibition of bacterial growth incubated for 18 hrs by broth microdilution method; format: functional
[13] = system: Staphylococcus simulans; experiment: Antibacterial activity against Staphylococcus simulans AKA1 assessed as inhibition of bacterial growth incubated for 18 hrs by broth microdilution method; format: functional
[14] = system: Staphylococcus aureus; experiment: Antibacterial activity against Staphylococcus aureus 745324 assessed as inhibition of bacterial growth incubated for 18 hrs by broth microdilution method; format: functional
[15] = system: Enterococcus faecalis; experiment: Antibacterial activity against Enterococcus faecalis ATCC 29212 assessed as inhibition of bacterial growth incubated for 18 hrs by broth microdilution method; format: functional
[16] = system: Staphylococcus aureus; experiment: Antibacterial activity against Staphylococcus aureus 991 assessed as inhibition of bacterial growth incubated for 18 hrs by broth microdilution method; format: functional
[17] = system: Staphylococcus aureus; experiment: Antibacterial activity against Staphylococcus aureus 6917 assessed as inhibition of bacterial growth incubated for 18 hrs by broth microdilution method; format: functional
[18] = system: Staphylococcus aureus; experiment: Antibacterial activity against Staphylococcus aureus GDE4P037P assessed as inhibition of bacterial growth incubated for 18 hrs by broth microdilution method; format: functional
[19] = system: HeLa; experiment: Cytotoxicity against human HeLa cells incubated for 48 hrs by CCK-8 assay; format: functional, cell-based
[20] = system: RBE; experiment: Cytotoxicity against human RBE cells incubated for 48 hrs by CCK-8 assay; format: functional, cell-based
[21] = system: Staphylococcus aureus; experiment: Antibacterial activity against Staphylococcus aureus 3090 assessed as inhibition of bacterial growth incubated for 18 hrs by broth microdilution method; format: functional
[22] = Cytotoxicity against human LX2 cells incubated for 48 hrs by CCK-8 assay; format: toxicity, cell-based; settings: lx-2, 48 h
[23] = system: A549; experiment: Cytotoxicity against human A549 cells incubated for 48 hrs by CCK-8 assay; format: functional, cell-based
[24] = system: Staphylococcus aureus; experiment: Antibacterial activity against Staphylococcus aureus 16162 assessed as inhibition of bacterial growth incubated for 18 hrs by broth microdilution method; format: functional
[25] = system: HUVEC; experiment: Cytotoxicity against HUVEC cells incubated for 48 hrs by CCK-8 assay; format: toxicity, cell-based; settings: human
[26] = system: MCF7; experiment: Cytotoxicity against human MCF7 cells incubated for 48 hrs by CCK-8 assay; format: functional, cell-based
[27] = system: HCT-116; experiment: Cytotoxicity against human HCT-116 cells incubated for 48 hrs by CCK-8 assay; format: functional, cell-based
[28] = system: HepG2; experiment: Cytotoxicity against human HepG2 cells incubated for 48 hrs by CCK-8 assay; format: functional, cell-based
[29] = system: Enterococcus faecalis; experiment: Antibacterial activity against Enterococcus faecalis 36950 assessed as inhibition of bacterial growth incubated for 18 hrs by broth microdilution method; format: functional

| SMILES | MIC [1] | MIC [2] | MIC [3] | MIC [4] | MIC [5] | MIC [6] | MIC [7] | MIC [8] | MIC [9] | MIC [10] | MIC [11] | MIC [12] | MIC [13] | MIC [14] | MIC [15] | MIC [16] | MIC [17] | MIC [18] | MIC [21] | MIC [24] | also measured |
| --- | --- | --- | --- | --- | --- | --- | --- | --- | --- | --- | --- | --- | --- | --- | --- | --- | --- | --- | --- | --- | --- |
| CC1(C)S[C@@H]2[C@H](NC(=O)[C@H](N)c3ccccc3)C(=O)N2[C@H]1C(=O)O [AMPICILLIN] | 4 µg/mL (≈ 11.4 µM) | 1 µg/mL (≈ 2.86 µM) | > 64 µg/mL | 8 µg/mL (≈ 22.9 µM) | 8 µg/mL (≈ 22.9 µM) | 64 µg/mL (≈ 183 µM) | > 64 µg/mL | 0.13 µg/mL (≈ 0.372 µM) | > 64 µg/mL | 32 µg/mL (≈ 91.6 µM) | 0.125 µg/mL (≈ 0.358 µM) | > 64 µg/mL | > 64 µg/mL | 4 µg/mL (≈ 11.4 µM) | 1 µg/mL (≈ 2.86 µM) | 4 µg/mL (≈ 11.4 µM) | 64 µg/mL (≈ 183 µM) | – | – | – | – |
| CCCc1cc(Oc2c(O)c(Cl)c(O)c(Cl)c2CCC)c(Cl)c(OC)c1Cl | 2 µg/mL (≈ 4.4 µM) | 2 µg/mL (≈ 4.4 µM) | 2 µg/mL (≈ 4.4 µM) | 4 µg/mL (≈ 8.81 µM) | 2 µg/mL (≈ 4.4 µM) | 2 µg/mL (≈ 4.4 µM) | 2 µg/mL (≈ 4.4 µM) | 1 µg/mL (≈ 2.2 µM) | 1 µg/mL (≈ 2.2 µM) | 2 µg/mL (≈ 4.4 µM) | 1 µg/mL (≈ 2.2 µM) | 1 µg/mL (≈ 2.2 µM) | 2 µg/mL (≈ 4.4 µM) | 2 µg/mL (≈ 4.4 µM) | 2 µg/mL (≈ 4.4 µM) | 2 µg/mL (≈ 4.4 µM) | 2 µg/mL (≈ 4.4 µM) | 2 µg/mL (≈ 4.4 µM) | 2 µg/mL (≈ 4.4 µM) | 2 µg/mL (≈ 4.4 µM) | Activity [19]: inactive; Activity [20]: inactive; Activity [22]: Non-Toxic; Activity [23]: inactive; Activity [25]: Non-Toxic; Activity [26]: inactive; Activity [27]: inactive; Activity [28]: inactive; MIC [29]: 0.5 µg/mL (≈ 1.1 µM) |
| CCCc1c(O)c(Oc2c(Cl)c(O)c(Cl)c(CCC)c2C(=O)OC)c(Cl)c(OC)c1Cl | 8 µg/mL (≈ 15.6 µM) | 8 µg/mL (≈ 15.6 µM) | 8 µg/mL (≈ 15.6 µM) | 4 µg/mL (≈ 7.81 µM) | 8 µg/mL (≈ 15.6 µM) | 8 µg/mL (≈ 15.6 µM) | 16 µg/mL (≈ 31.2 µM) | 4 µg/mL (≈ 7.81 µM) | 8 µg/mL (≈ 15.6 µM) | 8 µg/mL (≈ 15.6 µM) | 4 µg/mL (≈ 7.81 µM) | 16 µg/mL (≈ 31.2 µM) | 4 µg/mL (≈ 7.81 µM) | 8 µg/mL (≈ 15.6 µM) | 16 µg/mL (≈ 31.2 µM) | 8 µg/mL (≈ 15.6 µM) | 8 µg/mL (≈ 15.6 µM) | 16 µg/mL (≈ 31.2 µM) | 8 µg/mL (≈ 15.6 µM) | 8 µg/mL (≈ 15.6 µM) | MIC [29]: 4 µg/mL (≈ 7.81 µM) |
| CCCc1c(Cl)c(OC)c(Cl)c2c1Oc1c(Cl)c(O)c(Cl)c(CCC)c1C(=O)O2 | 1 µg/mL (≈ 2.08 µM) | 4 µg/mL (≈ 8.33 µM) | 2 µg/mL (≈ 4.17 µM) | 1 µg/mL (≈ 2.08 µM) | 1 µg/mL (≈ 2.08 µM) | 1 µg/mL (≈ 2.08 µM) | 2 µg/mL (≈ 4.17 µM) | 0.5 µg/mL (≈ 1.04 µM) | 2 µg/mL (≈ 4.17 µM) | 1 µg/mL (≈ 2.08 µM) | 0.125 µg/mL (≈ 0.26 µM) | 2 µg/mL (≈ 4.17 µM) | 0.25 µg/mL (≈ 0.521 µM) | 2 µg/mL (≈ 4.17 µM) | 1 µg/mL (≈ 2.08 µM) | 1 µg/mL (≈ 2.08 µM) | 2 µg/mL (≈ 4.17 µM) | 2 µg/mL (≈ 4.17 µM) | 1 µg/mL (≈ 2.08 µM) | 1 µg/mL (≈ 2.08 µM) | MIC [29]: 0.25 µg/mL (≈ 0.521 µM) |
| CCCc1c(O)c(Oc2c(Cl)c(O)c(Cl)c3c2C(=O)O[C@H](C)C3)cc(OC)c1Cl | 16 µg/mL (≈ 34.7 µM) | 8 µg/mL (≈ 17.3 µM) | 16 µg/mL (≈ 34.7 µM) | 16 µg/mL (≈ 34.7 µM) | 16 µg/mL (≈ 34.7 µM) | 16 µg/mL (≈ 34.7 µM) | 16 µg/mL (≈ 34.7 µM) | 8 µg/mL (≈ 17.3 µM) | 32 µg/mL (≈ 69.3 µM) | 8 µg/mL (≈ 17.3 µM) | 8 µg/mL (≈ 17.3 µM) | 16 µg/mL (≈ 34.7 µM) | 8 µg/mL (≈ 17.3 µM) | 16 µg/mL (≈ 34.7 µM) | 32 µg/mL (≈ 69.3 µM) | 8 µg/mL (≈ 17.3 µM) | 16 µg/mL (≈ 34.7 µM) | 32 µg/mL (≈ 69.3 µM) | 8 µg/mL (≈ 17.3 µM) | 16 µg/mL (≈ 34.7 µM) | Activity [19]: inactive; Activity [20]: inactive; Activity [22]: Non-Toxic; Activity [23]: inactive; Activity [25]: Non-Toxic; Activity [26]: inactive; Activity [27]: inactive; Activity [28]: inactive; MIC [29]: 16 µg/mL (≈ 34.7 µM) |
| CCCCC/C=C1/C(=O)C(CC=C(C)C)=C(C)C1O (stereo unspecified) | > 128 µg/mL | > 128 µg/mL | > 128 µg/mL | > 128 µg/mL | > 128 µg/mL | > 128 µg/mL | > 128 µg/mL | > 128 µg/mL | > 128 µg/mL | > 128 µg/mL | > 128 µg/mL | > 128 µg/mL | > 128 µg/mL | > 128 µg/mL | > 128 µg/mL | > 128 µg/mL | > 128 µg/mL | > 128 µg/mL | > 128 µg/mL | > 128 µg/mL | Activity [19]: inactive; Activity [20]: inactive; Activity [22]: Non-Toxic; Activity [23]: inactive; Activity [25]: Non-Toxic; Activity [26]: inactive; Activity [27]: inactive; Activity [28]: inactive; MIC [29]: > 128 µg/mL |
